In patent publication US8658801B2, “Pesticides containing a bicyclic bisamide structure” (Syngenta Crop Protection, LLC, priority 2006, dated 2014):

What was measured:
[1] = tested on: Spodoptera littoralis (Egyptian Cotton Leafworm); assay: Example B1: activity against Spodoptera littoralis, larvicide, feeding/residual contact, preventive (cotton leaf discs); type: in vivo; conditions: foliar, 72 h, 3 days after treatment, L1 larvae
[2] = tested on: Heliothis virescens (Tobacco Budworm); assay: Example B2: activity against Heliothis virescens, ovo-larvicide, feeding/contact, curative; type: in vivo; conditions: 96 h, 4 days incubation, eggs 0-24 h old
Procedure: Activity Against Heliothis virescens (Tobacco Budworm)
(Ovo-Larvicide, Feeding/Contact Activity, Curative)
Eggs (0-24 h old) are placed in 24-well microtiter plate on artificial diet and treated with test solutions by pipetting. After an incubation period of 4 days, samples are checked for egg mortality, larval mortality, and growth regulation.

[3] = tested on: Plutella xylostella (Diamond Back Moth); assay: Example B3: Plutella xylostella, larvicide, feeding/residual contact, preventive (artificial diet MTP); type: in vivo; conditions: 120 h, 5 days incubation, L2 larvae
In short: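 Artificial diet in multiwell plates treated with test solution, dried, then infested with 10–15 L2 larvae per well. After 5 days, larval mortality, antifeedant effect and growth regulation were scored.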

[4] = tested on: Diabrotica balteata (Corn Root Worm); assay: Example B4: Diabrotica balteata, larvicide, feeding/residual contact, preventive; type: in vivo; conditions: 120 h, 5 days incubation, L2 larvae
In short: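 Artificial diet treated with test solution, dried, then infested with 6-10 L2 larvae per well. Larval mortality, antifeedant effect and growth regulation checked after 5 days of incubation.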

[5] = tested on: Cydia pomonella (Codling Moth); assay: Example B8: activity against Cydia pomonella (paraffin-coated diet cubes); type: in vivo; conditions: 336 h, 14 days incubation at 26° C.
Procedure: Activity Against Cydia pomonella (Codling Moth)
Standard Cydia diet cubes (1.5 cm width) are pierced with a tooth-pick and are immersed in liquid paraffin (ca. 80° C.). After the paraffin coat has hardened, an aqueous emulsion containing 400 ppm of active ingredient is applied using a De Vilbis sprayer (25 ml, 1 bar). After the spray coating has dried, the cubes are put into plastic containers which are then populated with two freshly hatched Cydia pomonella (1st instar). The containers are then closed with a plastic cap. After 14 days incubation at 26° C. and 40-60% relative humidity, the survival rate of the caterpillars as well as their growth regulation is determined. In this test, compounds listed in Table P above show good activity. In particular compounds P.10, P.11, P.12, P.18, P.19, P.20, P.29, P.30, P.31, P.32, P.33, P.34, P.35, P.37, P.38, P.39, P.42, and P.43 show an activity of over 80% at a concentration of 400 ppm.

[6] = tested on: Frankliniella occidentalis (Western Flower Thrips); assay: Example B9: activity against Frankliniella occidentalis (bean leaf discs or bean plants); type: in vivo; conditions: foliar, 6 days (leaf discs) or 14 days (plants) after infestation
Procedure: Activity Against Frankliniella occidentalis (Western Flower Thrips)
Bean leaf discs on agar in petri dishes or bean plants in a spray chamber are treated with diluted test solutions. After drying leaf discs are cut and placed in plastic cups on the surface of an agar layer and infested with mixed population. 6 days (leaf discs) or 14 days (plants) after the infestation, samples are checked for reduction of treated population and compared to the non treated population.

[7] = tested on: Thrips tabaci (Onion Thrips); assay: Example B7: activity against Thrips tabaci, mixed population, feeding/residual contact, preventive; conditions: 144 h, read-out: activity
[8] = tested on: Myzus persicae (Green Peach Aphid); assay: Example B6: activity against Myzus persicae, mixed population, systemic/feeding, curative (pea seedling roots); conditions: 144 h, read-out: activity
[9] = tested on: Myzus persicae (Green Peach Aphid); assay: Example B5: activity against Myzus persicae, mixed population, feeding/residual contact, preventive (sunflower leaf discs); conditions: foliar, 144 h, read-out: activity
[10] = tested on: Aphis craccivora (Pea Aphid); assay: Example B10: activity against Aphis craccivora, mixed population, contact/feeding; type: in vivo; conditions: 144 h, 6 days after treatment, spray (contact/feeding)
Excerpt: (§1) Activity Against Aphis craccivora (Pea Aphid)
(Mixed Population, Contact/Feeding)
6 days after treatment, samples are checked for mortality.

[11] = tested on: Aphis craccivora (Pea Aphid); assay: Example B11: activity against Aphis craccivora, mixed population, systemic/feeding; type: in vivo; conditions: 144 h, 6 days, roots in test solution (systemic)
Excerpt: as §1
(§2) (Mixed Population, Systemic/Feeding)
(§3) 6 days later, samples are checked for mortality.

[12] = tested on: Aphis aossypii (Cotton Aphid); assay: Example B13: activity against cotton aphid, mixed population, systemic/feeding; type: in vivo; conditions: 144 h, 6 days, roots in test solution (systemic)
Excerpt: Activity Against Aphis aossypii (Cotton Aphid)
as §2, §3

Measured: pest or weed control at 400 ppm

CC(C)(CS(C)(=O)=O)NC(=O)c1c(NC(=O)c2cc(C(F)(F)F)nn2-c2ncccc2Cl)c(Br)cc2cn[nH]c12 [P.34]
not listed: [10] | [11] | [12]
> 80%: all other assays above

COc1cc(C(=O)Nc2c(C)cc3cn[nH]c3c2C(=O)NC2(C3CC3)CC2)n(-c2ncccc2Cl)n1 [P.28, 6-{[2-(3-chloro-pyridin-2-yl)-5-methoxy-2H-pyrazole-3-carbonyl]-amino}-5-methyl-1H-indazole-7-carboxylic acid bicyclopropyl-1-ylamide]
not listed: [5]
> 80%: all other assays above

Cc1cc2cn[nH]c2c(C(=O)NC(C)C)c1NC(=O)c1cc(C(F)(F)F)nn1-c1ncccc1Cl [P.44]
not listed: [5]
> 80%: all other assays above

COc1cc(C(=O)Nc2c(Cl)cc3cn[nH]c3c2C(=O)NC2(C)CS(=O)(=O)C2)n(-c2ncccc2Cl)n1 [P.61, 5-chloro-6-{[2-(3-chloro-pyridin-2-yl)-5-methoxy-2H-pyrazole-3-carbonyl]-amino}-1H-indazole-7-carboxylic acid (3-methyl-1,1-dioxo-1lambda*6*-thietan-3-yl)-amide]
not listed: [4] | [5] | [7] | [10]
> 80%: all other assays above

Cc1cc2cn[nH]c2c(C(=O)NC2(C3CC3)CC2)c1NC(=O)c1cc(C(F)(F)F)nn1-c1ncccc1Cl [P.49]
not listed: [5] | [12]
> 80%: all other assays above

COc1cc(C(=O)Nc2c(Cl)cc3cn[nH]c3c2C(=O)NC2(C3CC3)CC2)n(-c2ncccc2Cl)n1 [P.47]
not listed: [5]
> 80%: all other assays above

COc1cc(C(=O)Nc2c(Br)cc3cn[nH]c3c2C(=O)NC(C)C)n(-c2ncccc2Cl)n1 [P.35]
not listed: [10] | [11] | [12]
> 80%: all other assays above

COc1cc(C(=O)Nc2c(Cl)cc3cn[nH]c3c2C(=O)NC(C)C)n(-c2ncccc2Cl)n1 [P.40]
not listed: [4] | [5]
> 80%: all other assays above

CC(C)NC(=O)c1c(NC(=O)c2cc(C(F)(F)F)nn2-c2ncccc2Cl)c(Cl)cc2cn[nH]c12 [P.10]
not listed: [12]
> 80%: all other assays above

COc1cc(C(=O)Nc2c(Cl)cc3cn[nH]c3c2C(=O)NC(C)(C)CS(C)(=O)=O)n(-c2ncccc2Cl)n1 [P.60]
not listed: [4] | [5] | [7] | [10]
> 80%: all other assays above

CC(C)NC(=O)c1c(NC(=O)c2cc(C(F)F)nn2-c2ncccc2Cl)c(Cl)cc2cn[nH]c12 [P.39]
not listed: [10]
> 80%: all other assays above

CSCC(C)(C)NC(=O)c1c(NC(=O)c2cc(C(F)(F)F)nn2-c2ncccc2Cl)c(Br)cc2cn[nH]c12 [P.33]
not listed: [10] | [12]
> 80%: all other assays above

Cc1cc2cn[nH]c2c(C(=O)NC(C)C)c1NC(=O)c1cc(C(F)F)nn1-c1ncccc1Cl [P.56, 6-{[2-(3-chloro-pyridin-2-yl)-5-difluoromethyl-2H-pyrazole-3-carbonyl]-amino}-5-methyl-1H-indazole-7-carboxylic acid isopropylamide]
not listed: [4] | [5] | [10]
> 80%: all other assays above

O=C(NC1(C2CC2)CC1)c1c(NC(=O)c2cc(Br)nn2-c2ncccc2Cl)c(Cl)cc2cn[nH]c12 [P.46]
not listed: [5] | [12]
> 80%: all other assays above
